# Measurements from PMC5384001 (Scientific Reports, 2017).
# Numbering of substitutions follows the chain as printed. Where “and” joins values, the source holds several entries; their conditions need not be identical. Equal values may be shown once.
# Legend:
# [1] = molecular target: T1, GluD2-Lc(Y543Q) (Rattus norvegicus, UniProt Q63226, A654T/Y543Q); assay: Two-electrode voltage clamp in Xenopus oocytes, inhibition of spontaneous currents; assay type: cell-based; conditions: fraction of spontaneous current inhibited by saturating D-serine
# T1 construct: the function of full-length receptors as well, we introduced them into the GluD2 lurcher mutant (GluD2-Lc); expressed in transfected cells; host or cells: Xenopus laevis oocytes injected with cRNA
# T1 sequence (Q63226 24-1007 Y543Q/A654T): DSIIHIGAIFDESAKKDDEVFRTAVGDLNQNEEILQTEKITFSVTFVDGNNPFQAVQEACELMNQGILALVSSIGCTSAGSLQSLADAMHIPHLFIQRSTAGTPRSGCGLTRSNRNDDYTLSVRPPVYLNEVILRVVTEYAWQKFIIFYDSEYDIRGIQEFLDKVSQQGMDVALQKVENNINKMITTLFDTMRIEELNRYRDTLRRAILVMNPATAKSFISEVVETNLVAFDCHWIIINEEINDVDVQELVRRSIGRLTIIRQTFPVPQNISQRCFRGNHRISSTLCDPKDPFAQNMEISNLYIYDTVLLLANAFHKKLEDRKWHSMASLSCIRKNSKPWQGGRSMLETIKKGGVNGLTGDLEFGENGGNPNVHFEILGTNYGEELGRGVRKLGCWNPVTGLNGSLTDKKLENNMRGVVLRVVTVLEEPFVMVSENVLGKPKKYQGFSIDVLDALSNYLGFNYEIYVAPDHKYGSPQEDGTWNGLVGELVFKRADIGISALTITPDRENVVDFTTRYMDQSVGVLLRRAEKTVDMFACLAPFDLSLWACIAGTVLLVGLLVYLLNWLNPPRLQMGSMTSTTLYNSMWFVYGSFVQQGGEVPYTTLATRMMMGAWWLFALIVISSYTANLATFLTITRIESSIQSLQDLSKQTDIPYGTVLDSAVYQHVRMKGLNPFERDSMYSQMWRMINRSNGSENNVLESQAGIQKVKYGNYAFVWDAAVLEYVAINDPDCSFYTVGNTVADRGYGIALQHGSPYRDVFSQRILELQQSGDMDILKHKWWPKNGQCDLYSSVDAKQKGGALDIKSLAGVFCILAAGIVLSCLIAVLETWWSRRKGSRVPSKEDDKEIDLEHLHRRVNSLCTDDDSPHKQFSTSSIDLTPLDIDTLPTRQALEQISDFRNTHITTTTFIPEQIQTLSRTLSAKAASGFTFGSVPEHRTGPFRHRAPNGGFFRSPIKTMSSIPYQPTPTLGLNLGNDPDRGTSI
# [2] = molecular target: T2, GluD2-Lc(S544G)-(HS2)GluN1 (Rattus norvegicus, UniProt Q63226, A654T/A766F/D767R/N763E/R768S/S544G/T764L/V761T/V765F); assay: as above; assay type: cell-based; conditions: fraction of spontaneous current inhibited by saturating D-serine
# T2 construct: the function of full-length receptors as well, we introduced them into the GluD2 lurcher mutant (GluD2-Lc); expressed in transfected cells; host or cells: Xenopus laevis oocytes injected with cRNA
# T2 sequence (Q63226 24-1007 S544G/A654T/V761T/N763E/T764L/V765F/A766F/D767R/R768S): T1 sequence (Q63226 24-1007 Y543Q/A654T) with Q520Y, S521G, V738T, N740E, T741L, V742F, A743F, D744R, R745S
structure (smiles),measurement,setting,value
N[C@H](CO)C(=O)O [D-serine],D-serine efficacy Mean ± SEM,[1],36% and 36.2 ± 0.6%
same,D-serine efficacy Mean ± SEM,[2],40.6 ± 0.5%
